Results published in PMC12517324, “Hyperagonism of a Vitamin D Receptor Agonist/Histone Deacetylase Inhibitor Hybrid Molecule” (Journal of Medicinal Chemistry, 2025).

Legend:
[1] = tested on: CYP24A1 in SK-MEL-28 cells; experiment: CYP24A1 induction (RT-qPCR), extended dose–response in SK-MEL-28 cells; settings: SK-MEL-28 cells, 1,25D up to 1 mM
B16–F10 cells = experiment: RNaseq gene expression profiling; type: cell-based, mouse; settings: 100 nM, 24 h
Protocol: AC-340 superinduced CYP24A1 expression in all cell lines tested, and ZG-126 appeared to be a hyperagonist in SK-MEL-28 cells. […] AC-340 treatment produced 3 times more differentially expressed genes (DEGs) than AM-193, with ZG-126 producing an intermediate number (Figure A). […] The varying effects of each treatment on the numbers of regulated genes and the fold changes observed are reflected in plots of log-fold changes and volcano plots (Figure S3B).
A quality control was performed before sequencing in paired-end at 50 M reads by Illumina NovaSeq 6000 S4 PE100. After sequencing, the FASTQ files were sent to us and all downstream analysis were performed on Galaxy (Galaxy (usegalaxy.org)). First, trimmomatic tool was used to remove the adapters from the reads. Then, using the alignment tool, HISAT2, the reads were mapped to the mouse genome. In the next step, the counted reads were annotated and finally the list of differentially expressed genes (DEGs) for each treatment was obtained using the preinstalled R package called Limma.

[2] = tested on: VDRE in the mouse Spp1 gene, B16–F10 cells; experiment: ChIP-qPCR at the Spp1 VDRE; type: cell-based
Excerpt: To test this, we performed ChIP assays in B16–F10 cells, analyzing ligand-induced VDR and CBP (Creb binding protein) coactivator recruitment to the well-characterized consensus vitamin D receptor element (VDRE) in the mouse Spp1 gene (Figure A), which is superinduced by AC-340 (Figures C and A). CBP was chosen because it is widely expressed, and previous studies have shown that it is recruited to Cyp24a1 VDREs. […] In contrast, AC-340 recruited almost 3-fold more CBP under the same conditions (Figure C). CBP is a component of a large coactivator assembly recruited by VDR and required for chromatin remodeling due to its H3K27 acetyltransferase activity. − Since we previously observed a substantially higher level of H3K27 acetylation in AC-340-treated B16–F10 cells (Figure C,D), we intend to assess H3K27 acetylation at the Spp1 VDRE.
Cells were then fixed by adding formaldehyde directly to the culture medium to a final concentration of 1% and incubated for 15 min at RT. To quench the fixation, glycine was added to the medium at a final concentration of 125 mM. […] Quantification of immunoprecipitated materials was performed by qPCR and the enrichment of the target gene VDRE in each condition was normalized to the percentage input.

[3] = target: T1, zebrafish vitamin D receptor ligand binding domain (zVDR LBD, 156-453) (zebrafish, UniProt Q9PTN2 156-453); experiment: crystal structure; zVDR LBD (3-7 mg/mL) incubated with a 2-fold excess of ligand AC-340 and a 3-fold excess of the NCoA2 NR2 peptide; crystals at 293 K in Na2 tartrate 1.1 M, MgCl2 0.2 M, Hepes 0.1 M pH 7.5; one LBD complex per asymmetric unit; refined to 2.1 Å; settings: both partners purified
T1 construct: Cloned into pET28b; the His tag was removed by thrombin, so residues of the vector may remain at the end; The crystal also holds the small molecule AC-340; also called zebrafish VDR; source: Escherichia coli BL21 DE3, purified (Ni Hitrap FF crude column, thrombin cleavage, size exclusion on HiLoad Superdex 75)
T1 sequence (looked up): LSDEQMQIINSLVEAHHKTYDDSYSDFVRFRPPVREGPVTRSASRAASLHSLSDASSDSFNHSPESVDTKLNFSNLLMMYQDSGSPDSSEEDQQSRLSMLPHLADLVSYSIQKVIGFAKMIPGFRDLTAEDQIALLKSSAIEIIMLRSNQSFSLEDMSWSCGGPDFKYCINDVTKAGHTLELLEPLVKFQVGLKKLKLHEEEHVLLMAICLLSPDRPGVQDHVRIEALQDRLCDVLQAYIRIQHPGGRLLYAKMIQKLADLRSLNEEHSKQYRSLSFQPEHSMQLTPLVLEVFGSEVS

C=C1/C(=C\C=C2/CCC[C@]3(C)[C@@H]([C@H](C)CCCC(C)(C)O)CC[C@@H]23)C[C@@H](O)C[C@@H]1O [1,25D, 1α,25-dihydroxyvitamin D]
CYP24A1 induction on extending the dose range [1]: failed to enhance the induction of CYP24A1 | logFC 4931406C07Rik (B16–F10 cells): 0.647 | logFC Abcd2 (B16–F10 cells): 2.727 | logFC Ace (B16–F10 cells): 2.102 | logFC Adamts14 (B16–F10 cells): 1.691 | logFC Adamtsl5 (B16–F10 cells): 0.7958 | logFC Adssl1 (B16–F10 cells): 0.8651 | logFC Aqp1 (B16–F10 cells): 3.095 | logFC Ass1 (B16–F10 cells): 1.083 | logFC Atoh8 (B16–F10 cells): 1.866 | logFC C3 (B16–F10 cells): 2.444 | logFC Cebpd (B16–F10 cells): 0.9202 | logFC Cib2 (B16–F10 cells): 0.656 | logFC Crabp2 (B16–F10 cells): 1.516 | logFC Cyp24a1 (B16–F10 cells): 6.454 | logFC Dagla (B16–F10 cells): 0.6621 | logFC Ddo (B16–F10 cells): 1.132 | logFC Dhrs3 (B16–F10 cells): 1.185 | logFC Dmpk (B16–F10 cells): 1.6 | logFC Efcab6 (B16–F10 cells): 1.404 | logFC Efhd1 (B16–F10 cells): 3.1104 | logFC Elfn1 (B16–F10 cells): 4.174 | logFC Enpp1 (B16–F10 cells): 1.029 | logFC Enpp3 (B16–F10 cells): 1.066 | logFC Fam83f (B16–F10 cells): 1.009 | logFC Fam178b (B16–F10 cells): 0.6417 | logFC Gadd45a (B16–F10 cells): 0.6305 | logFC Gdpd5 (B16–F10 cells): 0.8468 | logFC Gm5424 (B16–F10 cells): 1.087 | logFC Grb14 (B16–F10 cells): 4.512 | logFC Hcn2 (B16–F10 cells): 2.951 | logFC Hes6 (B16–F10 cells): 0.8133 | logFC Hoga1 (B16–F10 cells): 0.7079 | logFC Hoxb9 (B16–F10 cells): 0.9861 | logFC Inmt (B16–F10 cells): 4.174 | logFC Itgal (B16–F10 cells): 2.511 | logFC Lgr6 (B16–F10 cells): 1.733 | logFC Lrtm2 (B16–F10 cells): 3.553 | logFC Mal (B16–F10 cells): 1.086 | logFC Matn2 (B16–F10 cells): 1.519 | logFC Mmp28 (B16–F10 cells): 2.973 | logFC Myl9 (B16–F10 cells): 1.815 | logFC Neu3 (B16–F10 cells): 0.8227 | logFC Nptx1 (B16–F10 cells): 1.67 | logFC Obscn (B16–F10 cells): 1.291 | logFC Pdlim2 (B16–F10 cells): 0.7794 | logFC Prag1 (B16–F10 cells): 0.7325 | logFC Prelp (B16–F10 cells): 4.153 | logFC Ptges (B16–F10 cells): 2.985 | logFC Rab7b (B16–F10 cells): 1.864 | logFC Rac2 (B16–F10 cells): 2.0813 | logFC Rom1 (B16–F10 cells): 0.7288 | logFC Rtn2 (B16–F10 cells): 0.9272 | logFC Scamp1 (B16–F10 cells): 0.6536 | logFC Serpinb9b (B16–F10 cells): 0.64 | logFC Sh3bgr (B16–F10 cells): 1.253 | logFC Shpk (B16–F10 cells): 0.8108 | logFC Sox8 (B16–F10 cells): 3.592 | logFC Spp1 (B16–F10 cells): 3.391 | logFC Srcin1 (B16–F10 cells): 2.803 | logFC Tgm2 (B16–F10 cells): 2.227 | logFC Tnni1 (B16–F10 cells): 6.667 | logFC Ttc39c (B16–F10 cells): 1.046 | logFC Vdr (B16–F10 cells): 3.982 | logFC Wnt10a (B16–F10 cells): 1.853 | H3K27 acetylation at the Spp1 VDRE [2]: ineffective

KHKILHRLLQDSS (also called NCoA2 peptide) [coactivator NCoA2 NR2 peptide (human nuclear receptor coactivator 2, second NR box)]
binding result [3]: binds
